Experiment [1] deals with NuRD complex member mRNA. Nature of the experiment: mRNA expression of NuRD complex members (RNAseq). The experiment is classed as cell-based, human. How it is done:
FIG. 7B is a scatter plot representation of protein abundance changes caused by BPK-25 (10 μM, 24 h) in two independent replicate experiments, with decreases in NuRD complex components highlighted in red. FIG. 7C is a heatmap of top proteins with decreased abundance in BPK-25-treated T cells showing that the subset of these proteins in the NuRD complex (asterisks) were largely unaltered by other active compounds and blocked in their degradation by co-treatment with the proteasome inhibitor MG132. […] FIG. 7E is a bar graph […] showing time-dependent reductions in NuRD complex members in human T cells treated with BPK-25 (10 μM). Left, representative western blots. Right, quantification of changes in protein. […] FIG. 7G is a heat map showing the changes in cysteine reactivity for NuRD complex members in human T cells treated with BPK-25 and other active compounds. […]
RNA quality was assessed using TapeStation 4200 and RNA-Seq libraries were prepared using the TruSeq stranded mRNA Sample Preparation Kit v2 according to Illumina protocols. Multiplexed libraries were validated using TapeStation 4200, normalized, pooled and quantified by qPCR for sequencing. […]
Sequenced reads were quality-tested using FASTQC Andrews S. (2010). […] Mapping was carried out using default parameters (up to 10 mismatches per read, and up to 9 multi-mapping locations per read). […]

Experiment [2] addresses T1, BIRC3 (Homo sapiens, UniProt Q13489).
T1 construct: endogenous in cells; host or cells: primary human T cells
As to the kind of experiment: isoTOP-ABPP and TMT-ABPP cysteine engagement, BIRC3. It counts as binding. As for the experimental part:
Activated or expanded T cells were re-suspended in RPMI media supplemented with 10% FBS, L-glutamine (2 mM), penicillin (100 U/mL), and streptomycin (100 μg/mL) at 2×10^6 cells/mL. The compounds were added to cells as 1000×DMSO stocks and mixed well with the media by pipetting up and down after addition. The cells were kept at 37° C. in 5% CO2 containing incubators for 3 h (or otherwise specified times), then pelleted by centrifugation (524 g, 5 min, 4° C.), washed with cold PBS (10 mL) and transferred to Eppendorf tubes (1 mL PBS). The cells were pelleted again (524 g, 5 min, 4° C.), flash-frozen, and kept at −80° C. until further analysis.
Activated or expanded primary human T cells were re-suspended in RPMI (1×10^6 cells/mL) containing 10% fetal bovine serum (FBS), penicillin (100 U/mL), streptomycin ([…]), and L-glutamine (2 mM). […] The resulting proteomes were analyzed by competitive isotopic Tandem Orthogonal Proteolysis Activity-Based Protein Profiling (isoTOP-ABPP). […]
The heavy/light isoTOP-ABPP ratios (R values) for each unique peptide (DMSO/compound treated) were quantified with in-house CIMAGE software (Weerapana et al., 2010) using default parameters (3 MS1 acquisitions per peak and signal to noise threshold set to 2.5). Site-specific engagement of cysteine residues was assessed by blockade of IA-alkyne probe labeling. […]

T1 sequence (Q13489 whole entry): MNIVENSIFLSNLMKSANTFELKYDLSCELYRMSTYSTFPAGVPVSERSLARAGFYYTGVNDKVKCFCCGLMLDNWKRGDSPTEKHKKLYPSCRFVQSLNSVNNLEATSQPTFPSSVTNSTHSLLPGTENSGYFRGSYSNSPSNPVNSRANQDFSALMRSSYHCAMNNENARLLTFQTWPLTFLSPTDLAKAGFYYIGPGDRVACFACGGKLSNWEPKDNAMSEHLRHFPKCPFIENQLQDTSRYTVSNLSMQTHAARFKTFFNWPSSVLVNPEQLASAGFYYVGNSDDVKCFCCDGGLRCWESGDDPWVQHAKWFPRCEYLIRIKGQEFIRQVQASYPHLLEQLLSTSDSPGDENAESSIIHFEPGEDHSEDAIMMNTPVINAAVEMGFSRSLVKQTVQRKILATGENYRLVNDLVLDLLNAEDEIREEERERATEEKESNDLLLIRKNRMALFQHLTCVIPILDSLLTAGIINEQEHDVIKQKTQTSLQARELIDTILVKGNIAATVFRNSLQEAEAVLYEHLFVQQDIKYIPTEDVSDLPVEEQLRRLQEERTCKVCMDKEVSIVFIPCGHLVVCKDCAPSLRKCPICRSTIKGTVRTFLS

Consider `C=CC(=O)N(Cc1cccc(Cl)n1)c1ccc(C(=O)Nc2ccccc2)nc1` [BPK-25], for which the “mRNA expression for NuRD complex members” value in experiment [1] was “not accompanied by corresponding changes in mRNA expression”.

In the case of `O=C(CCl)N1CCN(S(=O)(=O)c2ccc(-c3ccncc3)cc2)CC1` [EV-3], the “engagement of C28 of BIRC3” value in experiment [2] is “unique target”.
